Experimental data as given in article PMC10384010, “Chromatographic Data in Statistical Analysis of BBB Permeability Indices” (Membranes, 2023).
Where two headings read alike, the source gives them in different places.

Experiments:
[1] = cited from earlier work
[2] = Normal-phase TLC on silica gel 60 F254 (Rf); assay type: physicochemical; conditions: water:methanol:acetonitrile 60:20:20, ammonium acetate pH 7.4
[3] = entering the CNS / not entering the CNS; ref Drugbank [36]; cited from earlier work
[4] = cited from earlier work; remark: listed apart in the source
[5] = Reversed-phase TLC on RP-2 silanized plates (Rf); assay type: physicochemical; conditions: silica gel 60 RP-2 F254 silanized; water:methanol:acetonitrile 60:20:20, ammonium acetate pH 7.4
[6] = HPLC on IAM (immobilized artificial membrane) column, retention factor; assay type: physicochemical; conditions: IAM.PC.DD.2 column; for k(IAM) retention factor: 10 mM phosphate buffer pH 7.4:acetonitrile 80:20; for logkIAM: logarithm of retention factor, phosphate buffer pH 7.4:acetonitrile 80:20
[7] = plasma protein binding, given as fraction, ref Drugbank

Compound	NP (Rf from NP TLC plate) [2]	RP (Rf from RP-2 TLC plate) [5]	k(IAM) retention factor [6]	logkIAM [6]	Kp,uu,brain (unbound brain-to-plasma drug partition coefficient) ([1]; in vivo)	CNS+/- [3]	PB (protein binding) ([4]; plasma)	Kp,uu,brain (unbound brain-to-plasma drug partition coefficient) [1]	PB (protein binding) [4, 7]
CN1C[C@H](C(=O)N[C@]2(C)O[C@@]3(O)[C@@H]4CCCN4C(=O)[C@H](Cc4ccccc4)N3C2=O)C[C@@H]2c3cccc4[nH]cc(c34)C[C@H]21 [dihydroergotamine]	0.72	0.78			0.02	0	0.93		
CN(C)CCC=C1c2ccccc2COc2ccccc21 [doxepin]	0.3					1		3.11	0.755
O=C1NC(=O)C(c2ccccc2)(c2ccccc2)N1 [phenytoin]	0.97	0.87	1.78	0.25		1		0.66	0.9
CSc1ccc2c(c1)N(CCC1CCCCN1C)c1ccccc1S2 (stereo not shown) [thioridazine]	0.47	0.4	47.61	1.68		1		3.5	
O=c1n(CCCN2CCN(c3cccc(Cl)c3)CC2)nc2ccccn12 [trazodone]	0.71	0.76	9.30	0.97		1		1.54	0.92

The next lines start with results.

NP (Rf from NP TLC plate) [2]	RP (Rf from RP-2 TLC plate) [5]	k(IAM) retention factor [6]	logkIAM [6]	Compound	Kp,uu,brain (unbound brain-to-plasma drug partition coefficient) ([1]; in vivo)	CNS+/- [3]	PB (protein binding) ([4]; plasma)	Kp,uu,brain (unbound brain-to-plasma drug partition coefficient) [1]	PB (protein binding) [4, 7]
0.54	0.55	21.72	1.34	CN1CCN2c3ccccc3Cc3ccccc3C2C1 (stereo not shown) [mianserin]		1		3.22	0.9
0.39	0.58	5.83	0.77	CN1CCN2c3ncccc3Cc3ccccc3C2C1 (stereo not shown) [mirtazapine]		1		3.85	
0.93	0.92	0.32	-0.49	CC(=O)Nc1ccc(O)cc1 [paracetamol]		1		0.73	0.25
0.48	0.55			CCCN1C[C@H](CSC)C[C@@H]2c3cccc4[nH]cc(c34)C[C@H]21 [pergolide]		1		3.19	0.9
0.68	0.73	17.02	1.23	OCCOCCN1CCN(C2=Nc3ccccc3Sc3ccccc32)CC1 [quetiapine]		1		1.26	0.83
